Measured values from ChEMBL document CHEMBL4385630, “The synthesis and evaluation of quinolinequinones as anti-mycobacterial agents” (2019).
In brackets after ≈: the same amount, converted by molar mass. Activity calls are given as the source filed them. The calls are words filed in the database; no cut-off is given here.

How the values were obtained:
[1] = Electrochemical behavior of the compound in acetonitrile assessed as redox potential E1 at 1 mM using Ag/Ag+ electrode by cyclic voltammetry
[2] = Electrochemical behavior of the compound in acetonitrile assessed as redox potential E2 at 1 mM using Ag/Ag+ electrode by cyclic voltammetry
[3] = tested on: Mycobacterium tuberculosis; assay: Antimycobacterial activity against Mycobacterium tuberculosis MC2 6230 assessed as reduction in cell viability incubated for 5 days by resazurin based method; format: functional; conditions: MC2 6230, 120 h
[4] = tested on: Mycobacterium tuberculosis; assay: Antimycobacterial activity against Mycobacterium tuberculosis H37Rv incubated fro 96 hrs; format: functional
[5] = Electrochemical behavior of the compound in acetonitrile/tolunene assessed as redox potential E1 at 1 mM using Ag/Ag+ electrode by cyclic voltammetry
[6] = Electrochemical behavior of the compound in acetonitrile/tolunene assessed as redox potential E2 at 1 mM using Ag/Ag+ electrode by cyclic voltammetry
[7] = tested on: Mycolicibacterium smegmatis MC2 155; assay: Activation of NDH-2 in Mycobacterium smegmatis MC2 155 inverted membrane vesicles assessed as increase in oxygen consumption rate in presence of NADH by fluorespirometry
[8] = tested on: Mycobacterium tuberculosis; assay: Antimycobacterial activity against Mycobacterium tuberculosis incubated for 7 days by resazurin dye based assay; format: functional; conditions: 168 h

SMILES	Activity [1] [V]	Activity [2] [V]	MIC [3] [µM]	MIC [4] [µM]	Activity [5] [V]	Activity [6] [V]	Activity [7]	MIC [8] [µM]
COc1ccc(CNC2=C(Cl)C(=O)c3ccc(C)nc3C2=O)cc1	-0.52	-1.1	16 (≈ 5.48 µg/mL)	–	–	–	–	–
O=C1C(NC2CCCCCCC2)=CC(=O)c2ncccc21	–	–	–	3.5 (≈ 0.995 µg/mL)	–	–	–	–
CCCCCCCCNC1=C(Cl)C(=O)c2cccnc2C1=O	-0.68	-1.27	64 (≈ 20.5 µg/mL)	–	–	–	–	–
CCCCCCCCCCCCCCc1ccc(NC2=C(Cl)C(=O)c3cccnc3C2=O)cc1	–	–	> 512	–	-0.44	-1	–	–
CC1=CC(=O)c2ccccc2C1=O	-0.7	-1.27	–	–	–	–	–	–
C#CCNC1=C(Cl)C(=O)c2nc(C)ccc2C1=O	-0.55	-1.05	64 (≈ 16.7 µg/mL)	–	–	–	–	–
Cc1ccc2c(n1)C(=O)C(Cl)=C(Nc1ccccc1)C2=O	-0.47	-1.05	512 (≈ 153 µg/mL)	–	–	–	–	–
CCCCCCCCNC1=C(Cl)C(=O)c2ncccc2C1=O	-0.67	-1.26	16 (≈ 5.13 µg/mL)	–	–	–	–	–
CCCCCCCc1ccc(NC2=C(Cl)C(=O)c3ncccc3C2=O)cc1	-0.58	-1.15	64 (≈ 24.5 µg/mL)	–	–	–	–	–
Cc1ccc2c(n1)C(=O)C(Cl)=C(NC(C)(C)C)C2=O	-0.69	-1.25	256 (≈ 71.4 µg/mL)	–	–	–	–	–
C#CCNC1=C(Cl)C(=O)c2ncccc2C1=O	-0.5	-1.1	8 (≈ 1.97 µg/mL)	–	–	–	Active	–
O=C1C(NCCCl)=C(Cl)C(=O)c2ncccc21	–	–	–	–	–	–	–	8 (≈ 2.17 µg/mL)
Cc1ccc2c(n1)C(=O)C(N(C)C)=C(Cl)C2=O	-0.6	-1.13	> 512	–	–	–	–	–
Cc1ccc2c(n1)C(=O)C(N1CCCCC1)=C(Cl)C2=O	-0.61	-1.17	256 (≈ 74.4 µg/mL)	–	–	–	–	–
CCCCCCCCNC1=C(Cl)C(=O)c2nc(C)ccc2C1=O	-0.72	-1.27	128 (≈ 42.9 µg/mL)	–	–	–	–	–
C#CCNC1=C(Cl)C(=O)c2ccc(C)nc2C1=O	-0.51	-1.1	256 (≈ 66.7 µg/mL)	–	–	–	–	–
Cc1ccc2c(n1)C(=O)C(Cl)=C(N(C)C)C2=O	-0.62	-1.11	512 (≈ 128 µg/mL)	–	–	–	–	–
CCCNC1=C(Cl)C(=O)c2nc(C)ccc2C1=O	-0.6	-1.17	512 (≈ 136 µg/mL)	–	–	–	–	–

SMILES	Activity [1] [V]	Activity [2] [V]	MIC [3] [µM]	MIC [4] [µM]	Activity [5] [V]	Activity [6] [V]	Activity [7]	MIC [8] [µM]
COc1ccc(CNC2=C(Cl)C(=O)c3ncccc3C2=O)cc1	-0.61	-1.18	32 (≈ 10.5 µg/mL)	–	–	–	–	–
CCCCCCCCCCCCCCc1ccc(NC2=C(Cl)C(=O)c3ncccc3C2=O)cc1	–	–	> 512	–	-0.78	-1.1	–	–
CCCNC1=C(Cl)C(=O)c2ncccc2C1=O	-0.6	-1.16	128 (≈ 32.1 µg/mL)	–	–	–	–	–
NNC(=O)c1ccncc1 [ISONIAZID]	–	–	0.2 (≈ 0.0274 µg/mL)	–	–	–	–	–
CCCCCCCc1ccc(NC2=C(Cl)C(=O)c3cccnc3C2=O)cc1	-0.57	-1.08	32 (≈ 12.3 µg/mL)	–	–	–	–	–
O=C1C(Nc2ccccc2)=C(Cl)C(=O)c2ncccc21	-0.46	-1.06	> 512	–	–	–	–	–
CCCNC1=C(Cl)C(=O)c2cccnc2C1=O	-0.59	-1.16	128 (≈ 32.1 µg/mL)	–	–	–	–	–
COc1ccc(CNC2=C(Cl)C(=O)c3cccnc3C2=O)cc1	-0.63	-1.24	16 (≈ 5.26 µg/mL)	–	–	–	–	–
Cc1ccc2c(n1)C(=O)C(Cl)=C(NCCc1ccccc1)C2=O	-0.73	-1.3	128 (≈ 41.8 µg/mL)	–	–	–	–	–
O=C1C(NCCc2ccccc2)=C(Cl)C(=O)c2ncccc21	-0.6	-1.15	128 (≈ 40 µg/mL)	–	–	–	–	–
Cc1ccc2c(n1)C(=O)C(NC(C)(C)C)=C(Cl)C2=O	-0.59	-1.1	> 512	–	–	–	–	–
O=C1C(Cl)=C(Nc2ccccc2)C(=O)c2ncccc21	-0.42	-1	512 (≈ 146 µg/mL)	–	–	–	–	–
O=C1C(Cl)=C(NCCc2ccccc2)C(=O)c2ncccc21	-0.64	-1.21	16 (≈ 5 µg/mL)	–	–	–	–	–
Cc1ccc2c(n1)C(=O)C(Cl)=C(N1CCCCC1)C2=O	-0.57	-1.13	128 (≈ 37.2 µg/mL)	–	–	–	–	–
Cc1ccc2c(n1)C(=O)C(NCCc1ccccc1)=C(Cl)C2=O	-0.7	-1.3	16 (≈ 5.23 µg/mL)	–	–	–	–	–
Cc1ccc2c(n1)C(=O)C(Nc1ccccc1)=C(Cl)C2=O	-0.44	-0.9	256 (≈ 76.5 µg/mL)	–	–	–	–	–
C#CCNC1=C(Cl)C(=O)c2cccnc2C1=O	-0.49	-1.07	128 (≈ 31.6 µg/mL)	–	–	–	–	–
CCCNC1=C(Cl)C(=O)c2ccc(C)nc2C1=O	-0.56	-0.97	128 (≈ 33.9 µg/mL)	–	–	–	–	–
